Assay [1] deals with HCV (JFH-1) secreted by infected Huh-7.5.1 cells. As to the kind of experiment: HCV secretion by JFH-1 infected Huh-7.5.1 cells (HCV core antigen ELISA, HCV positive strand RNA qPCR). Format: cell-based, Hepatitis C virus. How it is done: The Huh-7.5.1 human hepatoma cell line and a plasmid containing the JFH-1 genome were kindly provided by Dr. Chisari (Scripps Research Institute, CA) and Dr. Wakita (National Institute of Infectious Diseases, Tokyo) respectively. Huh-7.5.1 cells were cultured in DMEM medium supplemented with 10% FBS, 200 units/ml penicillin and […] streptomycin in a 5% CO2-humidified incubator at 37° C. In vitro transcribed genomic JFH-1 RNA was delivered to cells by liposome-mediated transfection as described by Zhong et al. (2005)(8). Infected Huh-7.5.1 cells were passaged every 3 days and used at passage <15. The presence of HCV in these cells and corresponding supernatants were determined by quantitative Polymerase Chain Reaction (qPCR) and immunofluorescence staining. Primary human hepatocytes were purchased from BD Biosciences (San Jose, Calif.) cultured on a collagen-coated 12 well plate in C+H culture media composed of DMEM supplemented with 10% heat-inactivated FBS, 200 U/mL penicillin/streptomycin, 7.5 μg/mL hydrocortisone, 20 ng/mL EGF, 14 ng/mL glucagons and 0.5 U/mL insulin. The media was supplemented with 2% DMSO for long-term culture of the primary cells.
(§1) HCV-infected Huh-7.5.1 cells were plated on a 6-well plate at a density of 1×10^5 cells/cm^2 and cultured overnight in standard medium. Prior to the beginning of the experiment, the cells were washed 3 times with PBS and cultured with DMEM containing 5% lipoprotein-free FBS. Oleate, Insulin, Naringenin, and Brefeldin A were added at this time as described in the text. Following 24 hours of incubation, the plate was gently agitated to release mechanically bound particles, the media was collected, filtered to remove cellular debris, and stored at −80° C. for further analysis. The attached cells were washed 3 times with PBS, harvested, pelleted and stored at −80° C. for further analysis.
Huh-7.5.1 secreted HCV core antigen was detected in the media using Wako Chemicals (Cambridge, Mass.) ORTHO HCV antigen ELISA kit. Media was used as is, and the assay was carried out according to manufacturer's directions.
(§2) Virus samples collected in each experiment were filtered with a 0.45 μm filter and a volume of 100 μL for each sample was heated at 95° C. for 45 min. The reverse transcription reaction step was performed on a Mastercycler epgrdientS (Eppendorf) instrument using Omniscript and Sensiscript RT Kits (Qiagen). Real time PCR was performed on a Light Cycler LC-24 (Idaho Technology), using SuperScript™ III Platinum® CellsDirect Two-Step qRT-PCR Kits (Invitrogen) for quantitative PCR. For reverse transcription step, 2 μL of sample without RNA extraction were used. For real time PCR, 1 μL of the reverse transcription reactions was used. All reactions were performed according to the manufacturer's instructions using the primers detailed in Table 1.
However, this experiment was carried out on cells continuously producing the virus. Long-term treatment could potentially have a greater effect. […] This treatment is compared to the current standard-of-care, 1000 i.u. of Interferon α (IFNα). Both treatments lowered HCV RNA to a similar level, 96±5% and 93±5% respectively.
(In general: In an ELISA, binding on a coated surface is turned into a signal by an enzyme label.)

In assay [2] the test system is HCV (JFH-1) infection of naïve Huh7.5.1 cells. As to the kind of experiment: HCV infectivity of cell culture supernatant on naïve Huh7.5.1 cells. The class given is cell-based, Hepatitis C virus. As to the method: The infectivity of the secreted HCV particles was measured as previously described (8). Naïve Huh7.5.1 cells were grown to 80% confluence and exposed to cell culture supernatants diluted 10-fold in culture media. Following 1 hour incubation at 37° C., the media was replaced, and the cells were cultured for 3 additional days. Levels of HCV infection were determined by immunofluorescence staining for HCV core protein. The viral titer is expressed as focus forming units per milliliter of supernatant (ffu/ml).

Assay [3] concerns ApoB. As to the kind of experiment: ApoB secretion by JFH-1 infected Huh-7.5.1 cells (human ApoB ELISA). Conditions: 24 hours, brefeldin A 2.5 μg/ml. The class given is cell-based. As to the method:
as §1
Huh-7.5.1 and primary human hepatocytes secreted ApoB was detected in the media using ALerCHEK, Inc (Portland, Me.) total human ApoB ELISA kit. Media was diluted 1:10 with the specimen diluent, and the assay was carried out according to manufacturer's directions.
HCV-infected Huh-7.5.1 cells were plated T-25 tissue culture flasks at a density of 1×10^5 cells/cm^2 and cultured overnight in standard medium. Prior to silencing, the cells were washed 3 times with PBS and media was replaced with OptiMEM basal medium. SureSilencing shRNA (GFP) plasmids against human ApoB100 as well as shRNA plasmid control (500 ng/ml) were combined with lipofectamine 2000 in OptiMEM and incubated with the cells overnight. SureSilencing shRNA plasmids code for GFP which was used to sort the transfected Huh7.5.1 cells, using FACSAria (BD Biosciences) located at the Partners AIDS Research Center. Transfected cells (10% of the total population) were sorted directly into a 12-well plate and allowed to adhere overnight. Culture media was conditioned by the transfected cells for 24 hours and analyzed as described above.

The conditions of assay [4]: 400 mg/day oral, hypercholesterolemic patients; cited from earlier work.
For assay [5], the system named is HCV (JFH-1) in Huh-7.5.1 cells. As to the kind of experiment: Intracellular HCV RNA and core protein in infected Huh-7.5.1 cells. Format: cell-based, Hepatitis C virus. How it is done: as §1, §2
Huh-7.5.1 cells were washed 3 times with PBS and fixed in 4% EM-grade paraformaldehyde for 10 minutes at room temperature. Slides were then washed with PBS and incubated in 100 mmol/L glycine for 15 minutes to saturate reactive groups. Samples were permeabilized for 15 minutes with 0.1% Triton X-100, blocked for 30 minutes with 1% bovine serum albumin and 5% donkey serum at room temperature, and stained with primary antibodies overnight at 4° C. After additional washes with PBS, samples were stained with fluorescently tagged secondary antibodies for 45 minutes at room temperature.

[6] abbreviates: 24 hours, brefeldin A 2.5 μg/ml.

For `C[C@H]1CCC/C=C/[C@@H]2C[C@H](O)C[C@H]2[C@H](O)/C=C/C(=O)O1` [brefeldin A, reference compound], in assay [1] (setting [6]), the “HCV core protein secretion (in words)” value is listed as “significantly inhibits” and the “HCV positive strand RNA secretion (in words)” value is reported as “significantly inhibits”. Besides, in assay [2] (supernatant after 24 hours stimulation, naringenin 200 μM, brefeldin A 2.5 μg/ml), the “inhibition of infectivity of the cell supernatant” value is reported as 89%±10%. In addition, the “ApoB secretion (in words)” value in assay [3] is on record as “blocked”.

In the case of `C[C@@H]1O[C@@H](O[C@H]2[C@H](Oc3cc(O)c4c(c3)O[C@H](c3ccc(O)cc3)CC4=O)O[C@H](CO)[C@@H](O)[C@@H]2O)[C@H](O)[C@H](O)[C@H]1O` [naringin, reference compound], the “lowering of LDL levels” value in assay [4] is 17%.

Take IFNα [reference compound]: the “HCV replication (intracellular HCV RNA), long-term treatment” value in assay [5] (long-term treatment, naringenin 200 μM, IFNα 1000 i.u.) is on record as “inhibited”. Besides, in assay [1] (long-term daily treatment of infected Huh7.5.1 cells, naringenin 200 μM, IFNα 1000 i.u.), the “inhibition of HCV (RNA) secretion, long-term treatment” value is 93±5%.

Turning to “insulin: insulin obtained from Eli-Lilly [reference compound]”, the “intracellular levels of HCV (positive strand) RNA” value in assay [5] (24 hours stimulation) is “remained unchanged”. Further, the “HCV core protein secretion (in words)” value in assay [1] (setting [6]) is given as “downregulated”. The “infectivity of the cell supernatant (in words)” value in assay [2] (supernatant of stimulated infected Huh-7.5.1 cells) is reported as “decreased”. For the same compound, in assay [3], the “ApoB secretion (in words)” value is “downregulated”.

The values above are taken from US20160228575A1, “NARINGENIN COMPLEXES AND METHODS OF USE THEREOF” (THE GENERAL HOSPITAL CORPORATION, priority 2008, published 2016).
